Measured values taken from patent US6653455B1, “Crystallization of doxorubicin hydrochloride” (Mercian Corporation, priority 1998, dated 2003).
Counter-ions that a name gives are not always drawn.

assay: Hygroscopicity, cup method (weight change); assay type: physicochemical; conditions: weight-increasing rate, 25° C., 50 to 60% RH, 15 minutes; crystals dried at 40° C. under vacuum; hydrochloride
Method: Determined by the following cup method. To be specific, about 15 to 20 mg of the sample was put in a cylindrical cup having a diameter of 6 mm and a depth of 6 mm and left standing at a fixed temperature (25° C.) and relative humidity (50 to 60% RH) for 15 minutes to measure a weight change, whereby the hygroscopicity was evaluated.
In the following respective examples, a weight-increasing rate of 0.40% or more is shown by an evaluation criterion that the hygroscopicity is large (−); a weight-increasing rate of 0.20% or more and less than 0.40% is shown by an evaluation criterion that the hygroscopicity is ;intermediate (±); and a weight-increasing rate of less than 0.20% is shown by an evaluation criterion that the hygroscopicity is small: (+).

| SMILES | Hygroscopicity |
| --- | --- |
| COc1cccc2c1C(=O)c1c(O)c3c(c(O)c1C2=O)C[C@@](O)(C(=O)CO)C[C@@H]3O[C@H]1C[C@H](N)[C@H](O)[C@H](C)O1 [Example 41, doxorubicin hydrochloride] | + (a weight-increasing rate of less than 0.20% is shown by an evaluation criterion that the hygroscopicity is small: (+)) |
| COc1cccc2c1C(=O)c1c(O)c3c(c(O)c1C2=O)C[C@@](O)(C(=O)CO)C[C@@H]3O[C@H]1C[C@H](N)[C@H](O)[C@H](C)O1 [Example 39, doxorubicin hydrochloride] | + (a weight-increasing rate of less than 0.20% is shown by an evaluation criterion that the hygroscopicity is small: (+)) |
| COc1cccc2c1C(=O)c1c(O)c3c(c(O)c1C2=O)C[C@@](O)(C(=O)CO)C[C@@H]3O[C@H]1C[C@H](N)[C@H](O)[C@H](C)O1 [Example 26, doxorubicin hydrochloride] | + (a weight-increasing rate of less than 0.20% is shown by an evaluation criterion that the hygroscopicity is small: (+)) |
| COc1cccc2c1C(=O)c1c(O)c3c(c(O)c1C2=O)C[C@@](O)(C(=O)CO)C[C@@H]3O[C@H]1C[C@H](N)[C@H](O)[C@H](C)O1 [Example 28, doxorubicin hydrochloride] | + (a weight-increasing rate of less than 0.20% is shown by an evaluation criterion that the hygroscopicity is small: (+)) |
| COc1cccc2c1C(=O)c1c(O)c3c(c(O)c1C2=O)C[C@@](O)(C(=O)CO)C[C@@H]3O[C@H]1C[C@H](N)[C@H](O)[C@H](C)O1 [Example 14, doxorubicin hydrochloride] | ± (a weight-increasing rate of 0.20% or more and less than 0.40% is shown by an evaluation criterion that the hygroscopicity is ;intermediate (±)) |
| COc1cccc2c1C(=O)c1c(O)c3c(c(O)c1C2=O)C[C@@](O)(C(=O)CO)C[C@@H]3O[C@H]1C[C@H](N)[C@H](O)[C@H](C)O1 [Example 47, doxorubicin hydrochloride] | ± (a weight-increasing rate of 0.20% or more and less than 0.40% is shown by an evaluation criterion that the hygroscopicity is ;intermediate (±)) |
| COc1cccc2c1C(=O)c1c(O)c3c(c(O)c1C2=O)C[C@@](O)(C(=O)CO)C[C@@H]3O[C@H]1C[C@H](N)[C@H](O)[C@H](C)O1 [Example 35, doxorubicin hydrochloride] | ± (a weight-increasing rate of 0.20% or more and less than 0.40% is shown by an evaluation criterion that the hygroscopicity is ;intermediate (±)) |
| COc1cccc2c1C(=O)c1c(O)c3c(c(O)c1C2=O)C[C@@](O)(C(=O)CO)C[C@@H]3O[C@H]1C[C@H](N)[C@H](O)[C@H](C)O1 [Example 4, doxorubicin hydrochloride] | − (a weight-increasing rate of 0.40% or more is shown by an evaluation criterion that the hygroscopicity is large (−)) |
| COc1cccc2c1C(=O)c1c(O)c3c(c(O)c1C2=O)C[C@@](O)(C(=O)CO)C[C@@H]3O[C@H]1C[C@H](N)[C@H](O)[C@H](C)O1 [Example 29, doxorubicin hydrochloride] | + (a weight-increasing rate of less than 0.20% is shown by an evaluation criterion that the hygroscopicity is small: (+)) |
| COc1cccc2c1C(=O)c1c(O)c3c(c(O)c1C2=O)C[C@@](O)(C(=O)CO)C[C@@H]3O[C@H]1C[C@H](N)[C@H](O)[C@H](C)O1 [Example 36, doxorubicin hydrochloride] | ± (a weight-increasing rate of 0.20% or more and less than 0.40% is shown by an evaluation criterion that the hygroscopicity is ;intermediate (±)) |
| COc1cccc2c1C(=O)c1c(O)c3c(c(O)c1C2=O)C[C@@](O)(C(=O)CO)C[C@@H]3O[C@H]1C[C@H](N)[C@H](O)[C@H](C)O1 [Example 54, doxorubicin hydrochloride] | + (a weight-increasing rate of less than 0.20% is shown by an evaluation criterion that the hygroscopicity is small: (+)) |
| COc1cccc2c1C(=O)c1c(O)c3c(c(O)c1C2=O)C[C@@](O)(C(=O)CO)C[C@@H]3O[C@H]1C[C@H](N)[C@H](O)[C@H](C)O1 [Example 8, doxorubicin hydrochloride] | − (a weight-increasing rate of 0.40% or more is shown by an evaluation criterion that the hygroscopicity is large (−)) |
| COc1cccc2c1C(=O)c1c(O)c3c(c(O)c1C2=O)C[C@@](O)(C(=O)CO)C[C@@H]3O[C@H]1C[C@H](N)[C@H](O)[C@H](C)O1 [Example 9, doxorubicin hydrochloride] | − (a weight-increasing rate of 0.40% or more is shown by an evaluation criterion that the hygroscopicity is large (−)) |
| COc1cccc2c1C(=O)c1c(O)c3c(c(O)c1C2=O)C[C@@](O)(C(=O)CO)C[C@@H]3O[C@H]1C[C@H](N)[C@H](O)[C@H](C)O1 [Example 25, doxorubicin hydrochloride] | + (a weight-increasing rate of less than 0.20% is shown by an evaluation criterion that the hygroscopicity is small: (+)) |
| COc1cccc2c1C(=O)c1c(O)c3c(c(O)c1C2=O)C[C@@](O)(C(=O)CO)C[C@@H]3O[C@H]1C[C@H](N)[C@H](O)[C@H](C)O1 [Example 18, doxorubicin hydrochloride] | − (a weight-increasing rate of 0.40% or more is shown by an evaluation criterion that the hygroscopicity is large (−)) |
| COc1cccc2c1C(=O)c1c(O)c3c(c(O)c1C2=O)C[C@@](O)(C(=O)CO)C[C@@H]3O[C@H]1C[C@H](N)[C@H](O)[C@H](C)O1 [Example 17, doxorubicin hydrochloride] | − (a weight-increasing rate of 0.40% or more is shown by an evaluation criterion that the hygroscopicity is large (−)) |
| COc1cccc2c1C(=O)c1c(O)c3c(c(O)c1C2=O)C[C@@](O)(C(=O)CO)C[C@@H]3O[C@H]1C[C@H](N)[C@H](O)[C@H](C)O1 [Example 50, doxorubicin hydrochloride] | + (a weight-increasing rate of less than 0.20% is shown by an evaluation criterion that the hygroscopicity is small: (+)) |
| COc1cccc2c1C(=O)c1c(O)c3c(c(O)c1C2=O)C[C@@](O)(C(=O)CO)C[C@@H]3O[C@H]1C[C@H](N)[C@H](O)[C@H](C)O1 [Example 27, doxorubicin hydrochloride] | ± (a weight-increasing rate of 0.20% or more and less than 0.40% is shown by an evaluation criterion that the hygroscopicity is ;intermediate (±)) |
| COc1cccc2c1C(=O)c1c(O)c3c(c(O)c1C2=O)C[C@@](O)(C(=O)CO)C[C@@H]3O[C@H]1C[C@H](N)[C@H](O)[C@H](C)O1 [Example 53, doxorubicin hydrochloride] | + (a weight-increasing rate of less than 0.20% is shown by an evaluation criterion that the hygroscopicity is small: (+)) |
| COc1cccc2c1C(=O)c1c(O)c3c(c(O)c1C2=O)C[C@@](O)(C(=O)CO)C[C@@H]3O[C@H]1C[C@H](N)[C@H](O)[C@H](C)O1 [Example 31, doxorubicin hydrochloride] | + (a weight-increasing rate of less than 0.20% is shown by an evaluation criterion that the hygroscopicity is small: (+)) |
| COc1cccc2c1C(=O)c1c(O)c3c(c(O)c1C2=O)C[C@@](O)(C(=O)CO)C[C@@H]3O[C@H]1C[C@H](N)[C@H](O)[C@H](C)O1 [Example 3, doxorubicin hydrochloride] | − (a weight-increasing rate of 0.40% or more is shown by an evaluation criterion that the hygroscopicity is large (−)) |
| COc1cccc2c1C(=O)c1c(O)c3c(c(O)c1C2=O)C[C@@](O)(C(=O)CO)C[C@@H]3O[C@H]1C[C@H](N)[C@H](O)[C@H](C)O1 [Example 37, doxorubicin hydrochloride] | + (a weight-increasing rate of less than 0.20% is shown by an evaluation criterion that the hygroscopicity is small: (+)) |
| COc1cccc2c1C(=O)c1c(O)c3c(c(O)c1C2=O)C[C@@](O)(C(=O)CO)C[C@@H]3O[C@H]1C[C@H](N)[C@H](O)[C@H](C)O1 [Example 43, doxorubicin hydrochloride] | + (a weight-increasing rate of less than 0.20% is shown by an evaluation criterion that the hygroscopicity is small: (+)) |
| COc1cccc2c1C(=O)c1c(O)c3c(c(O)c1C2=O)C[C@@](O)(C(=O)CO)C[C@@H]3O[C@H]1C[C@H](N)[C@H](O)[C@H](C)O1 [Example 52, doxorubicin hydrochloride] | + (a weight-increasing rate of less than 0.20% is shown by an evaluation criterion that the hygroscopicity is small: (+)) |
| COc1cccc2c1C(=O)c1c(O)c3c(c(O)c1C2=O)C[C@@](O)(C(=O)CO)C[C@@H]3O[C@H]1C[C@H](N)[C@H](O)[C@H](C)O1 [Example 1, doxorubicin hydrochloride] | − (a weight-increasing rate of 0.40% or more is shown by an evaluation criterion that the hygroscopicity is large (−)) |
| COc1cccc2c1C(=O)c1c(O)c3c(c(O)c1C2=O)C[C@@](O)(C(=O)CO)C[C@@H]3O[C@H]1C[C@H](N)[C@H](O)[C@H](C)O1 [Example 15, doxorubicin hydrochloride] | − (a weight-increasing rate of 0.40% or more is shown by an evaluation criterion that the hygroscopicity is large (−)) |

assay: Average particle diameter, microscopic method (Heywood circle-corresponding diameter); assay type: physicochemical; conditions: 10 typical crystals on photograph, hydrochloride
Source text: The average particle diameter is shown by a diameter of a circle having the same area as an injected area of the particle, a so-called Heywood diameter (circle-corresponding diameter) according to a microscopic method (injected image). A small amount of the crystals was put on a slide glass, and 1 to 2 drops of a hydrophilic surfactant (sesquioleic acid sorbitan) were fallen thereon to disperse them. It was photographed by means of a polarization microscope (photographing lens: 3.3 magnifications, objective lens: 20 magnifications) equipped with a photographing device. Optional 10 pieces of the typical crystals were selected on the photograph to measure a long diameter and a short diameter thereof An (projected) area of the particle was shown by long diameter×short diameter, and the particle diameter was shown by a diameter of a circle having the same area as that obtained above.

| SMILES | Average particle diameter |
| --- | --- |
| COc1cccc2c1C(=O)c1c(O)c3c(c(O)c1C2=O)C[C@@](O)(C(=O)CO)C[C@@H]3O[C@H]1C[C@H](N)[C@H](O)[C@H](C)O1 [Example 28, doxorubicin hydrochloride] | 37 μm |
| COc1cccc2c1C(=O)c1c(O)c3c(c(O)c1C2=O)C[C@@](O)(C(=O)CO)C[C@@H]3O[C@H]1C[C@H](N)[C@H](O)[C@H](C)O1 [Example 47, doxorubicin hydrochloride] | 60 μm |
| COc1cccc2c1C(=O)c1c(O)c3c(c(O)c1C2=O)C[C@@](O)(C(=O)CO)C[C@@H]3O[C@H]1C[C@H](N)[C@H](O)[C@H](C)O1 [Example 35, doxorubicin hydrochloride] | 20 μm |
| COc1cccc2c1C(=O)c1c(O)c3c(c(O)c1C2=O)C[C@@](O)(C(=O)CO)C[C@@H]3O[C@H]1C[C@H](N)[C@H](O)[C@H](C)O1 [Example 4, doxorubicin hydrochloride] | <4 μm |
